Among the data in ChEMBL document CHEMBL2203185, “Development of sub-nanomolar dipeptidic ligands of neuropeptide FF receptors” (Bioorg Med Chem Lett, 2012) are Ki and inhibition values, retold here.

For orientation: Ki means the equilibrium dissociation constant of an inhibitor or competing ligand from its target. A lower Ki goes with higher affinity. By inhibition is commonly meant the change of the read-out against control, counted positive when it falls. A high value points to strong suppression.

Type in all cases: cell-based
Experiment [1] has as its target T1, Neuropeptide FF receptor 1 (Homo sapiens, UniProt Q9GZQ6). Briefly: Displacement of [3H]FFRF-NH2 from human flag-tagged NPFF1 receptor expressed in CHO cells by scintillation counting. Background: Displacement assays read how much labelled ligand stays bound in the presence of the test substance.
Experiment [2] concerns the target T2, Neuropeptide FF receptor 2 (Homo sapiens, UniProt Q9Y5X5). Briefly: Displacement of [3H]FFRF-NH2 from human flag-tagged NPFF2 receptor expressed in CHO cells by scintillation counting.
Experiment [3] has as its target T1, Neuropeptide FF receptor 1. Briefly: Displacement of [3H]FFRF-NH2 from human flag-tagged NPFF1 receptor expressed in CHO cells at 5 uM by scintillation counting.
The target in experiment [4] is T1, Neuropeptide FF receptor 1. Briefly: Displacement of [3H]FFRF-NH2 from human flag-tagged NPFF1 receptor expressed in CHO cells at 500 nM by scintillation counting.
For experiment [5], the target named is T2, Neuropeptide FF receptor 2. Briefly: Displacement of [3H]FFRF-NH2 from human flag-tagged NPFF2 receptor expressed in CHO cells at 500 nM by scintillation counting.
In experiment [6] the target is T2, Neuropeptide FF receptor 2. Briefly: Displacement of [3H]FFRF-NH2 from human flag-tagged NPFF2 receptor expressed in CHO cells at 5 uM by scintillation counting.

T1 sequence (Q9GZQ6 whole entry): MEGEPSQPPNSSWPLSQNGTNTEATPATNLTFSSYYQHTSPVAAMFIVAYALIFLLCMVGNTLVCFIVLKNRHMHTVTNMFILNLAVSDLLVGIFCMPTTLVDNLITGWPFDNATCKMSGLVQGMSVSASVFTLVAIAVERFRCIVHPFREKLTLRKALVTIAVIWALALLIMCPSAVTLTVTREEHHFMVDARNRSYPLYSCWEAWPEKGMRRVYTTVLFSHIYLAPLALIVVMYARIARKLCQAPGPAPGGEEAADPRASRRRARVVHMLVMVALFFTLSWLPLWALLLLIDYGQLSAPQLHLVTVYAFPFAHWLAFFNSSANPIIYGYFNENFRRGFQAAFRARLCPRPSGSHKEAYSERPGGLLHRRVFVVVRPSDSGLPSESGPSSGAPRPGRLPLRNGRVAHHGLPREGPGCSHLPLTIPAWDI
T2 sequence (Q9Y5X5 whole entry): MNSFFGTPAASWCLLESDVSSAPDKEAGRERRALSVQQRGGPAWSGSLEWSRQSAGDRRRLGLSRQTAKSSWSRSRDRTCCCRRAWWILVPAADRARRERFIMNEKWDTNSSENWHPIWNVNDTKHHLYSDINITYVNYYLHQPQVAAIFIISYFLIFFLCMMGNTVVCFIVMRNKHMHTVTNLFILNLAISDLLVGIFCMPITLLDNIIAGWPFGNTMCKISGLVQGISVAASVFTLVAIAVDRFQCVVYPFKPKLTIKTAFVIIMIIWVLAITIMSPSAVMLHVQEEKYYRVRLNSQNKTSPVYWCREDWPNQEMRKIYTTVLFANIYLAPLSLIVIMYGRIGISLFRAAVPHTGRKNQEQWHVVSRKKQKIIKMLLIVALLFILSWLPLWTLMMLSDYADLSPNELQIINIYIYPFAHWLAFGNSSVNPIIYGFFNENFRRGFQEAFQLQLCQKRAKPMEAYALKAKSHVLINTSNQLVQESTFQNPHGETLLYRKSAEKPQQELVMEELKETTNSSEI

For `NC(=O)[C@@H](Cc1ccccc1)NC(=O)[C@@H](CCCN=C(N)N)NC(=O)c1ccc(-c2ccccc2)cc1`, the Ki turned out to be 167 nM in experiment [1] and 417 nM in experiment [2].

Turning to `NC(=O)[C@H](Cc1ccccc1)NC(=O)[C@@H](CCCN=C(N)N)NC(=O)c1ccc(-c2ccccc2)cc1`, the inhibition constant (Ki) in experiment [1] was determined as 2 nM; in experiment [2], 94 nM.

In the case of `NC(=O)[C@@H](Cc1ccccc1)NC(=O)[C@@H](CCCN=C(N)N)NC(=O)c1cccc(-c2ccccc2)c1`, the figures for the Ki in experiment [1] and in experiment [2] were 110 nM and 672 nM, respectively.

`NC(=O)[C@H](Cc1ccccc1)NC(=O)[C@H](CCCN=C(N)N)NC(=O)CCN1c2ccccc2Sc2ccccc21` came in with an inhibitory constant (Ki) in experiment [1] of 0.9 nM.

As for `NC(=O)[C@H](Cc1ccccc1)NC(=O)[C@@H](CCCN=C(N)N)NC(=O)c1cccc(-c2ccccc2)c1`, the inhibition constant Ki in experiment [1] was 6 nM; in experiment [2] it was 9 nM.

Regarding `N=C(N)NCCC[C@@H](NC(=O)C12CC3CC(CC(C3)C1)C2)C(=O)N[C@@H](Cc1ccccc1)C(N)=O`, the inhibition in experiment [3] is 100%; in experiment [4], 85%; in experiment [5] it was 21%; in experiment [6], 60%. For the same compound, the Ki was determined as 29 nM in experiment [1] and 142 nM in experiment [2].

`NC(=O)[C@@H](Cc1ccccc1)NC(=O)[C@@H](CCCN=C(N)N)NC(=O)C12CC3CC(CC(C3)C1)C2`: the inhibitory constant (Ki) turned out to be 51 nM in experiment [1] and 208 nM in experiment [2].

Consider `NC(=O)[C@H](Cc1ccccc1)NC(=O)[C@@H](CCCN=C(N)N)NC(=O)Cc1ccccc1`, for which the Ki in experiment [1] was 35 nM; in experiment [2], 425 nM.

With `NC(=O)[C@@H](Cc1ccccc1)NC(=O)[C@@H](CCCN=C(N)N)NC(=O)c1ccccc1-c1ccccc1`, the inhibitory constant (Ki) is 5 nM in experiment [1] and 155 nM in experiment [2].

For `N=C(N)NCCC[C@@H](NC(=O)C(c1ccccc1)c1ccccc1)C(=O)N[C@@H](Cc1ccccc1)C(N)=O`, the inhibition in experiment [3] came out at 82%; in experiment [4], 75%; in experiment [5], 84%; in experiment [6] it was 100%. Besides, the Ki amounted to 10 nM in experiment [1] and 4 nM in experiment [2].

Regarding `NC(=O)[C@@H](Cc1ccccc1)NC(=O)[C@@H](CCCN=C(N)N)NC(=O)c1ccccc1`, the inhibition constant (Ki) in experiment [1] is 198 nM; in experiment [2], 2020 nM.

Consider `NC(=O)[C@H](Cc1ccccc1)NC(=O)[C@H](CCCN=C(N)N)NC(=O)C12CC3CC(CC(C3)C1)C2`, for which the results for the Ki in experiment [1] and in experiment [2] were 22 nM and 43 nM, respectively.

Regarding `NC(=O)[C@H](Cc1ccccc1)NC(=O)[C@H](CCCN=C(N)N)NC(=O)c1cccc2ccccc12`, the Ki in experiment [1] worked out at 87 nM; in experiment [2] it was 141 nM.

As for `NC(=O)[C@H](Cc1ccccc1)NC(=O)[C@H](CCCN=C(N)N)NC(=O)c1ccc2ccccc2n1`, the inhibition constant (Ki) turned out to be 121 nM in experiment [1] and 47 nM in experiment [2].

Turning to `N=C(N)NCCC[C@@H](NC(=O)Cc1ccccc1)C(=O)N[C@@H](Cc1ccccc1)C(N)=O`, the inhibition in experiment [3] was 87%; in experiment [4] it was 68%; in experiment [5] it was 30%; in experiment [6], 40%.

For the compound `N=C(N)NCCC[C@H](NC(=O)/C=C/c1cnc[nH]1)C(=O)N[C@@H](Cc1ccccc1)C(N)=O`, the inhibition was determined as 22% in experiment [3], 1% in experiment [4], 0% in experiment [5] and 18% in experiment [6].

On to `N=C(N)NCCC[C@H](NC(=O)/C=C/c1cccc(O)c1)C(=O)N[C@@H](Cc1ccccc1)C(N)=O`, for which the inhibition was 80% in experiment [3], 21% in experiment [4], 15% in experiment [5] and 47% in experiment [6].

As to `N=C(N)NCCC[C@H](NC(=O)c1[nH]c2ccccc2c1-c1ccccc1)C(=O)N[C@@H](Cc1ccccc1)C(N)=O`, the inhibition in experiment [3] stood at 92%; in experiment [4], 39%; in experiment [5], 14%; in experiment [6], 27%.

Consider `N=C(N)NCCC[C@H](NC(=O)Cc1ccc(Cl)cc1)C(=O)N[C@@H](Cc1ccccc1)C(N)=O`, for which the inhibition worked out at 100% in experiment [3], 62% in experiment [4], 9% in experiment [5] and 63% in experiment [6].

As to `NC(=O)[C@@H](Cc1ccccc1)NC(=O)[C@@H](CCCN=C(N)N)NC(=O)Cc1ccccc1`, the Ki amounted to 273 nM in experiment [1] and 3200 nM in experiment [2].

Take `N=C(N)NCCC[C@H](NC(=O)c1ccc(O)c(O)c1)C(=O)N[C@@H](Cc1ccccc1)C(N)=O`: the inhibition in experiment [3] is 56%; in experiment [4], 18%; in experiment [5] it was 0%; in experiment [6] it was 28%.

In the case of `CCCCCC(=O)N[C@@H](CCCNC(=N)N)C(=O)N[C@@H](Cc1ccccc1)C(N)=O`, the inhibition in experiment [3] was 95%; in experiment [4], 45%; in experiment [5] it was 30%; in experiment [6], 53%.

Consider `N=C(N)NCCC[C@H](NC(=O)c1c(Cl)cccc1Cl)C(=O)N[C@@H](Cc1ccccc1)C(N)=O`, for which the inhibition in experiment [3] turned out to be 85%; in experiment [4], 30%; in experiment [5], 0%; in experiment [6], 11%.

As for `N=C(N)NCCC[C@H](NC(=O)Cc1ccc(O)c(O)c1)C(=O)N[C@@H](Cc1ccccc1)C(N)=O`, the inhibition is 61% in experiment [3], 0% in experiment [4], 17% in experiment [5] and 38% in experiment [6].

Regarding `N=C(N)NCCC[C@H](NC(=O)Cc1ccc(O)cc1)C(=O)N[C@@H](Cc1ccccc1)C(N)=O`, the inhibition in experiment [3] was found to be 76%; in experiment [4], 32%; in experiment [5], 0%; in experiment [6], 26%.

`N=C(N)NCCC[C@H](NC(=O)c1cccc(-c2ccccc2)c1)C(=O)N[C@@H](Cc1ccccc1)C(N)=O`: the inhibition in experiment [3] stood at 82%; in experiment [4], 26%; in experiment [5], 27%; in experiment [6], 56%.

Regarding `N=C(N)NCCC[C@H](NC(=O)C12CC3CC(CC(C3)C1)C2)C(=O)N[C@@H](Cc1ccccc1)C(N)=O`, the inhibition in experiment [3] is 97%; in experiment [4], 60%; in experiment [5] it was 40%; in experiment [6] it was 85%.

As to `CC(C)(C)c1ccc(C(=O)N[C@@H](CCCNC(=N)N)C(=O)N[C@@H](Cc2ccccc2)C(N)=O)cc1`, the inhibition in experiment [3] is 94%; in experiment [4] it was 43%; in experiment [5] it was 14%; in experiment [6], 31%.

Take `N=C(N)NCCC[C@H](NC(=O)c1ccc2nc[nH]c2c1)C(=O)N[C@@H](Cc1ccccc1)C(N)=O`: the inhibition in experiment [3] worked out at 28%; in experiment [4], 9%; in experiment [5] it was 8%; in experiment [6], 27%.

With `N=C(N)NCCC[C@H](NC(=O)CC(c1ccccc1)c1ccccc1)C(=O)N[C@@H](Cc1ccccc1)C(N)=O`, the inhibition is 89% in experiment [3], 37% in experiment [4], 16% in experiment [5] and 40% in experiment [6].

As to `COc1ccc(C(=O)N[C@@H](CCCNC(=N)N)C(=O)N[C@@H](Cc2ccccc2)C(N)=O)cc1OC`, the inhibition in experiment [3] amounted to 65%; in experiment [4], 13%; in experiment [5] it was 0%; in experiment [6], 27%.

For `N=C(N)NCCC[C@H](NC(=O)c1cccnc1)C(=O)N[C@@H](Cc1ccccc1)C(N)=O`, the inhibition in experiment [3] was found to be 64%; in experiment [4], 11%; in experiment [5] it was 9%; in experiment [6], 23%.

Take `N=C(N)NCCC[C@H](NC(=O)Cc1ccccc1O)C(=O)N[C@@H](Cc1ccccc1)C(N)=O`: the inhibition in experiment [3] worked out at 92%; in experiment [4] it was 27%; in experiment [5], 16%; in experiment [6], 37%.

In the case of `N=C(N)NCCC[C@H](NC(=O)C(c1ccccc1)c1ccccc1)C(=O)N[C@@H](Cc1ccccc1)C(N)=O`, the inhibition in experiment [3] stood at 88%; in experiment [4] it was 34%; in experiment [5], 0%; in experiment [6], 33%.

For the compound `N=C(N)NCCC[C@@H](NC(=O)c1ccccc1)C(=O)N[C@H](Cc1ccccc1)C(N)=O`, the inhibition in experiment [3] worked out at 73%; in experiment [4], 35%; in experiment [5], 15%; in experiment [6], 30%.

`N=C(N)NCCC[C@H](NC(=O)/C=C/c1cccnc1)C(=O)N[C@@H](Cc1ccccc1)C(N)=O`: the inhibition came to 41% in experiment [3], 3% in experiment [4], 6% in experiment [5] and 27% in experiment [6].

For `NC(=O)[C@H](Cc1ccccc1)NC(=O)[C@H](CCCN=C(N)N)NC(=O)c1ccccc1-c1ccccc1`, the Ki in experiment [1] was 0.32 nM; in experiment [2], 590 nM.

For `COc1ccc(/C=C/C(=O)N[C@@H](CCCNC(=N)N)C(=O)N[C@@H](Cc2ccccc2)C(N)=O)cc1`, the inhibition in experiment [3] was 100%; in experiment [4], 35%; in experiment [5] it was 21%; in experiment [6] it was 64%.

`COc1ccccc1C(=O)N[C@@H](CCCNC(=N)N)C(=O)N[C@@H](Cc1ccccc1)C(N)=O`: the inhibition in experiment [3] worked out at 96%; in experiment [4], 40%; in experiment [5], 10%; in experiment [6] it was 19%.

For `Cc1ccc(CC(=O)N[C@@H](CCCNC(=N)N)C(=O)N[C@@H](Cc2ccccc2)C(N)=O)cc1`, the inhibition worked out at 72% in experiment [3], 34% in experiment [4], 5% in experiment [5] and 14% in experiment [6].

Consider `N=C(N)NCCC[C@H](NC(=O)CCN1c2ccccc2Sc2ccccc21)C(=O)N[C@@H](Cc1ccccc1)C(N)=O`, for which the inhibition in experiment [3] amounted to 100%; in experiment [4] it was 100%; in experiment [5] it was 31%; in experiment [6], 59%.
